Each block holds one molecule with its values, some of them ahead of it.
Key:
[1] = target: Leucine-rich repeat serine/threonine-protein kinase 2 (Homo sapiens, UniProt Q5S007); assay: Selectivity interaction (Kinase panel (Invitrogen)) EUB0000639a LRRK2; conditions: at 200 nM
[2] = target: 1-phosphatidylinositol 3-phosphate 5-kinase (Homo sapiens) (UniProt Q9Y2I7); assay: Selectivity interaction (KinomeScan (DiscoverX)) EUB0001049a PIKFYVE; conditions: at 1 µM
[3] = target: T1, Cyclin-dependent kinase-like 5 (Homo sapiens) (UniProt O76039); assay: Selectivity interaction (Ambit KINOMEscan and KiNATiv profiling in Jurkat cells) EUB0000090b CDKL5; type: cell-based; conditions: at 1 µM
T1 sequence (whole entry): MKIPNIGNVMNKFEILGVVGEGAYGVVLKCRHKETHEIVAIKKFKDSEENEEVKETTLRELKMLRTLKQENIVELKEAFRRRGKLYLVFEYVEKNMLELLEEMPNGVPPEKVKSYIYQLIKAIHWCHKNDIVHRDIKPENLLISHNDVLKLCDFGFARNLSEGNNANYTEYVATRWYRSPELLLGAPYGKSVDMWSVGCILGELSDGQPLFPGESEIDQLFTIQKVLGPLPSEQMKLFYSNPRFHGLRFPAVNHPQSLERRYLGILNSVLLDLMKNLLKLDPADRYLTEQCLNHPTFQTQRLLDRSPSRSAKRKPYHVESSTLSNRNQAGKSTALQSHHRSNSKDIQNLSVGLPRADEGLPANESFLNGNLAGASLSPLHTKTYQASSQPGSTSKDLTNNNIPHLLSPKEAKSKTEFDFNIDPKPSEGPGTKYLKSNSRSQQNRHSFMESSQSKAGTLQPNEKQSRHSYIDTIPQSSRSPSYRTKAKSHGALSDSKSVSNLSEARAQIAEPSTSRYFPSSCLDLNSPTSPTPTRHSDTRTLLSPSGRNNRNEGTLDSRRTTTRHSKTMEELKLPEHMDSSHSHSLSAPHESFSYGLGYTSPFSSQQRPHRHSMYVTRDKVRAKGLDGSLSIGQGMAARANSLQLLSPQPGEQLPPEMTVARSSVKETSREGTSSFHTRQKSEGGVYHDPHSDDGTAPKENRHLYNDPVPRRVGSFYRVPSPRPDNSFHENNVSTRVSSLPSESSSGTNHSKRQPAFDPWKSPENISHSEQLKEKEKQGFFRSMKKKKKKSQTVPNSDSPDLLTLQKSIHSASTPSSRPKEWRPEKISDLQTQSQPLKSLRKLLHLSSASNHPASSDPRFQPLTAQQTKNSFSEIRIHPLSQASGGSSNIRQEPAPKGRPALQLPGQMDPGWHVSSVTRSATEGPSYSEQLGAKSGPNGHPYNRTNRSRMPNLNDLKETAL

[4] = target: T2, Ephrin type-A receptor 1 (Homo sapiens) (UniProt P21709); assay: Selectivity interaction (KinomeScan (DiscoverX)) EUB0000655a EPHA1; conditions: at 10 µM
T2 sequence (whole entry): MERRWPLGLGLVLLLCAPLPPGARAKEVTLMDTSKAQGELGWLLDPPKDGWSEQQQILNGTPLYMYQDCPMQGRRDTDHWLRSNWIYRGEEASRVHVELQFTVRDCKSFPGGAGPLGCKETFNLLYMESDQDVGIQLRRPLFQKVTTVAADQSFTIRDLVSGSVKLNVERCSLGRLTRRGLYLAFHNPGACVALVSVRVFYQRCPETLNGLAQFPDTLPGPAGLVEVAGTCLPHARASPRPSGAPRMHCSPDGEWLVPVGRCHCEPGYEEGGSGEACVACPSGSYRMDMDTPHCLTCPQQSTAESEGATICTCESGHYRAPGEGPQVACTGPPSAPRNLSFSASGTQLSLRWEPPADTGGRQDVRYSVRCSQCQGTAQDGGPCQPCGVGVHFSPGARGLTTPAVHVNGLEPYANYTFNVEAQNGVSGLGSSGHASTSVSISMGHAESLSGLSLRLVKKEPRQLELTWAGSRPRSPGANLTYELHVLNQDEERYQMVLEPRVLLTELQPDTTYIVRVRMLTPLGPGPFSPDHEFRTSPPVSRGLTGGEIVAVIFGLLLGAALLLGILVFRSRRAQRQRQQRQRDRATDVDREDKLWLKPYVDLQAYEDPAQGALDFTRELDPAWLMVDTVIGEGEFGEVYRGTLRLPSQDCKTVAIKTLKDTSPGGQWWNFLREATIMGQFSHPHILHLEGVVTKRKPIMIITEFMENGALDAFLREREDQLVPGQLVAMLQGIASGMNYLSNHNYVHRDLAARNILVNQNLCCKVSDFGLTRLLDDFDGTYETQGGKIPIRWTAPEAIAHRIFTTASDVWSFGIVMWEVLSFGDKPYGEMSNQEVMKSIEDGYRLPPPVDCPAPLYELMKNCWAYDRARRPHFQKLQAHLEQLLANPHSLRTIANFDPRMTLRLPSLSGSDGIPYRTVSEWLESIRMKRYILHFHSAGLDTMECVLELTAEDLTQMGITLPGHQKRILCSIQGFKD

[5] = target: BMP-2-inducible protein kinase (Homo sapiens) (UniProt Q9NSY1); assay: Selectivity interaction (KinomeScan (DiscoverX)) EUB0000229b BMP2K; conditions: at 10 µM
BMP-2-inducible protein kinase (Homo sapiens), sequence (Q9NSY1 whole entry, looked up): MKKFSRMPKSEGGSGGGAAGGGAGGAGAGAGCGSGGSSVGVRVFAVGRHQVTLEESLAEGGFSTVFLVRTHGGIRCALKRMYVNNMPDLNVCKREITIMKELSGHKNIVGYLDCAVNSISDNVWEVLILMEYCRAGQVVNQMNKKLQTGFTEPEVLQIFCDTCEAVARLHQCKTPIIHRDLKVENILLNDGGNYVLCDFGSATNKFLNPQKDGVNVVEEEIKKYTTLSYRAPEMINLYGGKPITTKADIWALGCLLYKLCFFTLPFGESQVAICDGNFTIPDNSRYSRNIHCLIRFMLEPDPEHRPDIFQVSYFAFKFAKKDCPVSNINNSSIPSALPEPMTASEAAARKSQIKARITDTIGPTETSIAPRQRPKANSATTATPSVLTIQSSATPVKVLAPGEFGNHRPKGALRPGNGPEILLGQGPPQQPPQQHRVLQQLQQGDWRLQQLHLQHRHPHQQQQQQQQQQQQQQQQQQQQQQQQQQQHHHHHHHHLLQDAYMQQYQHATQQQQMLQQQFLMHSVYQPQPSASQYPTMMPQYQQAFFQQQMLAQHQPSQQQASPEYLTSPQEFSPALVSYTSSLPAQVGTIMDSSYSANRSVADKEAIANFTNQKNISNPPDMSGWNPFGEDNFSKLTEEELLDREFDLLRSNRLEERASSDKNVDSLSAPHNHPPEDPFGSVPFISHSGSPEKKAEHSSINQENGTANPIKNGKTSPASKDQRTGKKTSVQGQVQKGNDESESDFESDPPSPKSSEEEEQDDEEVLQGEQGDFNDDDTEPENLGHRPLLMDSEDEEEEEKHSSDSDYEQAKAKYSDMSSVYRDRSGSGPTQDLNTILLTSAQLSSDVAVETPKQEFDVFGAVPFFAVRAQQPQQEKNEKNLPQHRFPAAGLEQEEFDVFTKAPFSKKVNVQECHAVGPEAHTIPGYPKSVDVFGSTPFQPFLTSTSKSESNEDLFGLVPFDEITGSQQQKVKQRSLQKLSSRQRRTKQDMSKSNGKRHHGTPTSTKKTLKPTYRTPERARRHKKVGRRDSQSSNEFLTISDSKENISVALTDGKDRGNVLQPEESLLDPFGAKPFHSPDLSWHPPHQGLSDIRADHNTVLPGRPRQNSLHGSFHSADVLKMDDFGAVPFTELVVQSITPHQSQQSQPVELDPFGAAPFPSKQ

Leucine-rich repeat serine/threonine-protein kinase 2, sequence (Q5S007 whole entry): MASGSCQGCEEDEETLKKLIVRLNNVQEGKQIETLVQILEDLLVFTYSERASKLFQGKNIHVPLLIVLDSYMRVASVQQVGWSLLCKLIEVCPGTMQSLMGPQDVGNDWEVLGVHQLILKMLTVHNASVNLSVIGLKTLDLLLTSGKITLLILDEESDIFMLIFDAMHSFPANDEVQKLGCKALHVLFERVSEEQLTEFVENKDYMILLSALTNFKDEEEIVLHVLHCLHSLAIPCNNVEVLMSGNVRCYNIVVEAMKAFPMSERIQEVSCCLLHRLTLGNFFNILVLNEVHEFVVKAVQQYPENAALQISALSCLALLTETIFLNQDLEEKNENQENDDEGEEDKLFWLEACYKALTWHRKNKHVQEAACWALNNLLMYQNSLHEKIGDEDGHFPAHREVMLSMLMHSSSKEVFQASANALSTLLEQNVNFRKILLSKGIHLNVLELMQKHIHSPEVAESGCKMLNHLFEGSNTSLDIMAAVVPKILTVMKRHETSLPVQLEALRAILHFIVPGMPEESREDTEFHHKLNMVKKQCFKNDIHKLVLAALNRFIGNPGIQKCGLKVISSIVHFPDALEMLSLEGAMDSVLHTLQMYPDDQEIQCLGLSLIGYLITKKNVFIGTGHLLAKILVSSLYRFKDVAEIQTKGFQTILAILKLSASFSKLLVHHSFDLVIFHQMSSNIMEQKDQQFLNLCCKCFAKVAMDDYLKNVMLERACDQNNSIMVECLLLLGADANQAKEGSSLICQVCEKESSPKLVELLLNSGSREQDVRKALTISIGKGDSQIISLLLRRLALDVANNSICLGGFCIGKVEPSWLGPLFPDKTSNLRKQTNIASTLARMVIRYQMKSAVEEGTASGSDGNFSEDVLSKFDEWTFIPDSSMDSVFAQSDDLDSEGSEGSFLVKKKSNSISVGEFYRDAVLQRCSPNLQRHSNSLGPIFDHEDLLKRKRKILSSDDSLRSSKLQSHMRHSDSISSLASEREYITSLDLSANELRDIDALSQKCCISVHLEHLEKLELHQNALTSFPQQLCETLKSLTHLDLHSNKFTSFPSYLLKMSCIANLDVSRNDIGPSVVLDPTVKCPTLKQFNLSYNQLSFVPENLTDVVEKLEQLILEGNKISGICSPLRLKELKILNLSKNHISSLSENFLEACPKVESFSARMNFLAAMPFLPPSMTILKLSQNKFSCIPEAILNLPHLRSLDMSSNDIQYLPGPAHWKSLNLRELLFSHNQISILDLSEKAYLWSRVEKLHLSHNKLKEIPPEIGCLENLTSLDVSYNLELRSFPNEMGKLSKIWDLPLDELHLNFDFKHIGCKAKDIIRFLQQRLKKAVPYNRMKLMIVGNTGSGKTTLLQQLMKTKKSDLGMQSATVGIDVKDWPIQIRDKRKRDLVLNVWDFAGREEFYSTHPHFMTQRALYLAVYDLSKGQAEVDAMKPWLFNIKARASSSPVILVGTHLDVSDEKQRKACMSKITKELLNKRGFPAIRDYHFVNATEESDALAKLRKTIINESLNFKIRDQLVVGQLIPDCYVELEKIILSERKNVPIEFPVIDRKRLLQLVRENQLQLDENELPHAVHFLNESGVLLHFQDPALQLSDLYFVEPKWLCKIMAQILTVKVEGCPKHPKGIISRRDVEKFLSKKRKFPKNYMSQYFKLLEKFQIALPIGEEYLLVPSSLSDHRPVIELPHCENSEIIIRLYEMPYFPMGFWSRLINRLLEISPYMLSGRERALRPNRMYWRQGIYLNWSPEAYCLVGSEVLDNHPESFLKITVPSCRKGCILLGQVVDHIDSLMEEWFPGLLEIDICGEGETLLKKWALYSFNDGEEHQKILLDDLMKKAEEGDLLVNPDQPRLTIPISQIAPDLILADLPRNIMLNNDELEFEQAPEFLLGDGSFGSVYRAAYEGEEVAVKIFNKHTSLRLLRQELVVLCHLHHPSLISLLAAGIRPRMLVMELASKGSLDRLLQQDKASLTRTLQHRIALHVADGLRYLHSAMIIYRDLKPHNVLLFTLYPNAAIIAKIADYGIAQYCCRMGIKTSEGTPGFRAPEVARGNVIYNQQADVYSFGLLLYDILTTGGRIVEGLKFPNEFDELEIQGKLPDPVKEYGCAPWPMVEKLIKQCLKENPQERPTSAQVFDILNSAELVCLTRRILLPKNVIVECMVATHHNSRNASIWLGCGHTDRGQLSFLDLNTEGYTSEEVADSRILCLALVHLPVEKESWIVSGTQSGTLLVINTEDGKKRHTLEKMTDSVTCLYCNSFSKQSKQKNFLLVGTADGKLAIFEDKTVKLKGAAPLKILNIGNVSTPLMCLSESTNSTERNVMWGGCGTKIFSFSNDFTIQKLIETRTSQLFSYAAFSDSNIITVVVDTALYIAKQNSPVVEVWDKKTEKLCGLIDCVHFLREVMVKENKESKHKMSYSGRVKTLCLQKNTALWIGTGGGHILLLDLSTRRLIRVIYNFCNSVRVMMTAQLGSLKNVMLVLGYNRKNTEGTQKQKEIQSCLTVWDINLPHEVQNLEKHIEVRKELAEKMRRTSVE

% of inhibition [1]: 85.1%
Compound: CC[C@@H]1[C@H](F)C(=O)N[C@@H]1COc1nccc2cc(C(N)=O)c(OC)cc12 [ZIMLOVISERTIB]

Compound: COc1cc(Nc2nc(C)cc(-c3cnn4nc(OC)ccc34)n2)cc(C(F)(F)F)c1
% of control [2]: 100%

Compound: CN(C)C/C=C/C(=O)Nc1ccc(C(=O)N2CCCC(Nc3ncc(Cl)c(-c4c[nH]c5ccccc45)n3)C2)cc1 (stereo not given)
% of control [3]: 100%

Compound: CN(C)CCOc1ccc(-c2nc(-c3ccncc3)c(-c3ccc4c(c3)CC/C4=N\O)[nH]2)cc1
% of control [4]: 91%

Compound: COc1cc(N(C)c2ccnc3ccc(C(F)(F)F)cc23)cc(OC)c1OC
% binding [5]: 99%
